Data from paper PMC9841288 (Journal of Translational Autoimmunity, 2022).

Experiments:
MYLK = MYLK (Homo sapiens, UniProt Q15746); test: KINOMEscan competition binding, single dose […]
CLK2 = CLK2 (Homo sapiens, UniProt P49760); test: KINOMEscan competition binding, single dose […]
ALK(C1156Y) = ALK(C1156Y) (Homo sapiens, UniProt Q9UM73, C1156Y); test: KINOMEscan competition binding, single dose […]
DYRK1A = DYRK1A (Homo sapiens, UniProt Q13627); test: radiometric HotSpot kinase assay, […] ATP; type: biochemical
DYRK1B = DYRK1B (Homo sapiens, UniProt Q9Y463); test: KINOMEscan competition binding, single dose […]
Chain of DYRK1B (Q9Y463 whole entry): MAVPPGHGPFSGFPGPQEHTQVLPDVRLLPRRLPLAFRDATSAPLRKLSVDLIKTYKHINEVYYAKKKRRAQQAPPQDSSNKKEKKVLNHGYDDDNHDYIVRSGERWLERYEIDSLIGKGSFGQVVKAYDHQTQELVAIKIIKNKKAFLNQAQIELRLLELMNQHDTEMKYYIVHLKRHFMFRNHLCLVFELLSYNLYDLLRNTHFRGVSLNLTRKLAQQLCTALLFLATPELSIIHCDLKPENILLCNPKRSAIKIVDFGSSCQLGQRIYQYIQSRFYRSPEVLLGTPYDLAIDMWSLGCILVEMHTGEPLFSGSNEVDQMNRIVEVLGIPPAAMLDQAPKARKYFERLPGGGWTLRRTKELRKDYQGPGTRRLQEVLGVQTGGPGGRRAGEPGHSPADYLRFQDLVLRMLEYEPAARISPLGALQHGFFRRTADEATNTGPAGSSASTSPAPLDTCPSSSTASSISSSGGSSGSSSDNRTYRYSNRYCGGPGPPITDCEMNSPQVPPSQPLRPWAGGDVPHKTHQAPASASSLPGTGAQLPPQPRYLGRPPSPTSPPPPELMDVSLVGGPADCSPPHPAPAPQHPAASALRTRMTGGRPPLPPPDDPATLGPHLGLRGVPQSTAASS

ALK = ALK (Homo sapiens, UniProt Q9UM73); test: KINOMEscan competition binding, single dose […]
Chain of ALK (Q9UM73 19-1620): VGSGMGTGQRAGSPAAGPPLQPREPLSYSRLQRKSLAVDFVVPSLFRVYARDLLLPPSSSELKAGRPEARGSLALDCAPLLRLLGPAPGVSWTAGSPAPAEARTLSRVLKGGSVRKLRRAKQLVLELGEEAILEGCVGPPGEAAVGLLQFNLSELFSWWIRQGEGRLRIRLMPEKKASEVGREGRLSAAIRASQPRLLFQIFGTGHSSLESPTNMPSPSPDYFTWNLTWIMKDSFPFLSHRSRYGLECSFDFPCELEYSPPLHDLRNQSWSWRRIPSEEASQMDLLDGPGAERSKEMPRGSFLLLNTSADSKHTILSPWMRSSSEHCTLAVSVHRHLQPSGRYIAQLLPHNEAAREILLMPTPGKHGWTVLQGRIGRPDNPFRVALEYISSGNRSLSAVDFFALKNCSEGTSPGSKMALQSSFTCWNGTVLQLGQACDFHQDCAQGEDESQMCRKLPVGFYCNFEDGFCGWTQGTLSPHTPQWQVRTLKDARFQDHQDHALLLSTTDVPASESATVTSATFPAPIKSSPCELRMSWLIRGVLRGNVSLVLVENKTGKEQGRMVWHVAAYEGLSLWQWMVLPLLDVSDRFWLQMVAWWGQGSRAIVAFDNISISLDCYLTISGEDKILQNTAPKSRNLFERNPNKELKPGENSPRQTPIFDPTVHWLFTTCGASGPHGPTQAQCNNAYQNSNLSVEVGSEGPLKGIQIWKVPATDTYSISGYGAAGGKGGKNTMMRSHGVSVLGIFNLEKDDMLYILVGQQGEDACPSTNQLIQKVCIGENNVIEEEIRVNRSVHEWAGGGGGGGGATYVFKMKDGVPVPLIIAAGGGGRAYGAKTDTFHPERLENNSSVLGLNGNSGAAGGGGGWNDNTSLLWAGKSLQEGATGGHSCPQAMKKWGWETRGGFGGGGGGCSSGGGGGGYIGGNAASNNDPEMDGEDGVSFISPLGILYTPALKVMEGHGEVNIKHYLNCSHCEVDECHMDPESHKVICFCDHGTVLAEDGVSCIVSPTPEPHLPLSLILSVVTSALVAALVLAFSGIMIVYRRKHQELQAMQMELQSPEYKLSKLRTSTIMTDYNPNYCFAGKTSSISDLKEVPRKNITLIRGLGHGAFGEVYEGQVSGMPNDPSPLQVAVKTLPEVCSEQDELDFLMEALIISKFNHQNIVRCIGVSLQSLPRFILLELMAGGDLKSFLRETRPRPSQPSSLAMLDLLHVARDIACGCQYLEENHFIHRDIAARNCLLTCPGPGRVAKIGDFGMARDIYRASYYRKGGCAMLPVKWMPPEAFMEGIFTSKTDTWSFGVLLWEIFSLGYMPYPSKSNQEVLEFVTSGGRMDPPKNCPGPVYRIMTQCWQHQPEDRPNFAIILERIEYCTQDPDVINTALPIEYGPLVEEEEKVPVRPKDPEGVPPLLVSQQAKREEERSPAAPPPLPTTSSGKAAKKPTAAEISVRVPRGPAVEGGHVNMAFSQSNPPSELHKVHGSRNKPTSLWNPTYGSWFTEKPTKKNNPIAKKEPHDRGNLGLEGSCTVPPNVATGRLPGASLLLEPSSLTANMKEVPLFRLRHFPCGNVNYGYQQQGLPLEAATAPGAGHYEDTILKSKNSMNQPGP

CLK1 = CLK1 (Homo sapiens, UniProt P49759); test: KINOMEscan competition binding, single dose […]
Chain of CLK1 (P49759 whole entry): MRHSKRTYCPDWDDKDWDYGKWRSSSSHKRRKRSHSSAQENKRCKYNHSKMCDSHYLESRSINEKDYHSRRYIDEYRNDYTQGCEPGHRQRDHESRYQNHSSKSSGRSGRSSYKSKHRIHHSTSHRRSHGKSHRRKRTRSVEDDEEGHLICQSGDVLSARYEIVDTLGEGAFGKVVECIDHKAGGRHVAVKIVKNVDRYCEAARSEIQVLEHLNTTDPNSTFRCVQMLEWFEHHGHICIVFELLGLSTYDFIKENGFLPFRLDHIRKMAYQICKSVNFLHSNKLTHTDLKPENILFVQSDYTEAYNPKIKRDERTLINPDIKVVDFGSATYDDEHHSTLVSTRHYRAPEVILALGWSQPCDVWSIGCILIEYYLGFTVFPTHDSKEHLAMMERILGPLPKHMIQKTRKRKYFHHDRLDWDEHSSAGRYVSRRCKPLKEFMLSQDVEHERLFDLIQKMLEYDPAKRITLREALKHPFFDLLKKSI

Chain of ALK(C1156Y) (Q9UM73 1093-1411 C1156Y limits assumed): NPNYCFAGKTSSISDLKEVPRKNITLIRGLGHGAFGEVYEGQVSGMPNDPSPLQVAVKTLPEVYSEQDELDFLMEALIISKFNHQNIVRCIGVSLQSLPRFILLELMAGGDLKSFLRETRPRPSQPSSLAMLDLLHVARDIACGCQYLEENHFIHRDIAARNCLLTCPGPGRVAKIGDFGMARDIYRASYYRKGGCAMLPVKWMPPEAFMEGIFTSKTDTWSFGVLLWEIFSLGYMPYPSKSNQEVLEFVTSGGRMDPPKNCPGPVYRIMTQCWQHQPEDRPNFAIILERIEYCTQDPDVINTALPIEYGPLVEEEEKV
Chain of MYLK (Q15746 whole entry): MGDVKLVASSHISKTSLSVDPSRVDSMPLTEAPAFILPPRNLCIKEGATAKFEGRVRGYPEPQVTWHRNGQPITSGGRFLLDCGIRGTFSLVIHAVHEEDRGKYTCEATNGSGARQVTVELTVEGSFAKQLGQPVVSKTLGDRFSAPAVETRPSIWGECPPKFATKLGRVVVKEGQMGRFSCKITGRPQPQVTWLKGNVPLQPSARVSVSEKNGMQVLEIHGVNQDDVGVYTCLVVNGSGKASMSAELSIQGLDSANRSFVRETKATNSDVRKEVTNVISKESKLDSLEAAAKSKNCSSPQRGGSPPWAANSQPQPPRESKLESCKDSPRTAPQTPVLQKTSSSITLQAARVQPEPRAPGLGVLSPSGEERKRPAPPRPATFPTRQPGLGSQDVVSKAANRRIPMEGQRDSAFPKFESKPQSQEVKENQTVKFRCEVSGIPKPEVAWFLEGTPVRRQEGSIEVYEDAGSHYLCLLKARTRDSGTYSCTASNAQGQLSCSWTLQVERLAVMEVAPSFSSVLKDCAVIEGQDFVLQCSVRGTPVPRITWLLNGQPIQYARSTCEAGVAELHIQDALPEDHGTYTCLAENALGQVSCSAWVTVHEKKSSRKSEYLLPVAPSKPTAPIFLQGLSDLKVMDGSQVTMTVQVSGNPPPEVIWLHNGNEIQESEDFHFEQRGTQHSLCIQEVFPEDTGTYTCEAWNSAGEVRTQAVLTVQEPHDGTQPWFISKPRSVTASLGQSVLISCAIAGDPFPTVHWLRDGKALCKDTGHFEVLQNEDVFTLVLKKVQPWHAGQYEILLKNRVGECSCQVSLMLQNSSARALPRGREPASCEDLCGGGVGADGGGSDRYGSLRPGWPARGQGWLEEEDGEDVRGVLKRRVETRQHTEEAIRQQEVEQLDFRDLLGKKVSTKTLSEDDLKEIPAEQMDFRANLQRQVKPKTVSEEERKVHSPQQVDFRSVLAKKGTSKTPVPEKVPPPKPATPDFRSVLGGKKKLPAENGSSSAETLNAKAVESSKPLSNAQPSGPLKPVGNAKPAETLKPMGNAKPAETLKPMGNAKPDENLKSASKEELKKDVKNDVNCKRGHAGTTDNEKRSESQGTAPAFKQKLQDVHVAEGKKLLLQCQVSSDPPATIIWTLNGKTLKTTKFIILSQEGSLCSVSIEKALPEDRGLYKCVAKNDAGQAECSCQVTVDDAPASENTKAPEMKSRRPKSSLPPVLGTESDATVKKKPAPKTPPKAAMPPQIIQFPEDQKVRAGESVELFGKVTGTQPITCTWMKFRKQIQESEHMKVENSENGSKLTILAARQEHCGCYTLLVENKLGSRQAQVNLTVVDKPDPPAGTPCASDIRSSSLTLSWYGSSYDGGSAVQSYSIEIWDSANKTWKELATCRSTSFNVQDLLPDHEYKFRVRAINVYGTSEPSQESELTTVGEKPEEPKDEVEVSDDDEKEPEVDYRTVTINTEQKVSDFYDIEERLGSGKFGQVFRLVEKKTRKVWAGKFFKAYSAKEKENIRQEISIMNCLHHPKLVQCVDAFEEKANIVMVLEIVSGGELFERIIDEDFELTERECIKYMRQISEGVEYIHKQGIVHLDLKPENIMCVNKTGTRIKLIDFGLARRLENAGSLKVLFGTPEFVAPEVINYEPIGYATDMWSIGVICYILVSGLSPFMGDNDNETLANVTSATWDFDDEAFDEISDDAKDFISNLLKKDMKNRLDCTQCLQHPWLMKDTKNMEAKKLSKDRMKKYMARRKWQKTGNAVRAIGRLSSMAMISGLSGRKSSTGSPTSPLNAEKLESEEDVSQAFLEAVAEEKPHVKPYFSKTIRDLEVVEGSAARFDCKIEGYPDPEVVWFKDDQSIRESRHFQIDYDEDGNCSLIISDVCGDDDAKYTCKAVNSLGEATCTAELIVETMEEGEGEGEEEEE

Substance: FRTX-02
- % of control unbound at 1 μM (MYLK): 7.8
- % of control unbound at 1 μM (CLK2): 3.3
- % of control unbound at 1 μM (ALK(C1156Y)): 2.5
- IC50 (DYRK1A): 2.9 nM
- % of control unbound at 1 μM (DYRK1B): 1.8
- % of control unbound at 1 μM (ALK): 3.5
- % of control unbound at 1 μM (CLK1): 1.1
